Broadly, the IC50 is the concentration that inhibits the measured activity by half.

Sequence of PI3Kα H1047R (P42336 whole entry H1047R): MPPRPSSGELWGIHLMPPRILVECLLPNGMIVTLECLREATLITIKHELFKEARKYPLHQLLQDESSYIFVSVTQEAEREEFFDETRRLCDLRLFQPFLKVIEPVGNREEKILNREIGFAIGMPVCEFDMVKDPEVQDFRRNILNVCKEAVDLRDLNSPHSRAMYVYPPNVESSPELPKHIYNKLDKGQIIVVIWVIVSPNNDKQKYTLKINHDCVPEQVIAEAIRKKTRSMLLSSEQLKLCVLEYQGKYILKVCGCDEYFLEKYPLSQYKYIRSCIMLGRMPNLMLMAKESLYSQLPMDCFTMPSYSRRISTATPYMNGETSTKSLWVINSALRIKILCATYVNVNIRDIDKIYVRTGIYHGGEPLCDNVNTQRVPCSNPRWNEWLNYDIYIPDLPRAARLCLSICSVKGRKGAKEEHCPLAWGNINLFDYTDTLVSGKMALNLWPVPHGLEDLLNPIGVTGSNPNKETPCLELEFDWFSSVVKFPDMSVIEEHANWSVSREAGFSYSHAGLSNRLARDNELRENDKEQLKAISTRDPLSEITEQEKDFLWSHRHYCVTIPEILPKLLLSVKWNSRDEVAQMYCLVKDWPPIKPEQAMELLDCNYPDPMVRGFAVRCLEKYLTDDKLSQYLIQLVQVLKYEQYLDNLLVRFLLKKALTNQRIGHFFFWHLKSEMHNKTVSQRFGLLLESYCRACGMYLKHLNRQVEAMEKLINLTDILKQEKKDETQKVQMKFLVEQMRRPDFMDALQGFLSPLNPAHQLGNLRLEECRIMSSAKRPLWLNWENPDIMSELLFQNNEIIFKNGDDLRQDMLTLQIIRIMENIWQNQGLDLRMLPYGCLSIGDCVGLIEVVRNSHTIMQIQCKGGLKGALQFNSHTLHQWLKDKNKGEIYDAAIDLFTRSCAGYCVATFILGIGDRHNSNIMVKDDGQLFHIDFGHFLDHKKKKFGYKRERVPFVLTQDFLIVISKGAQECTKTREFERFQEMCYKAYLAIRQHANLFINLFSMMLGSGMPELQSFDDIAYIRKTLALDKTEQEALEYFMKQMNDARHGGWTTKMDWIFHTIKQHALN
Sequence of PI3Kα H1047R (P27986 whole entry partner): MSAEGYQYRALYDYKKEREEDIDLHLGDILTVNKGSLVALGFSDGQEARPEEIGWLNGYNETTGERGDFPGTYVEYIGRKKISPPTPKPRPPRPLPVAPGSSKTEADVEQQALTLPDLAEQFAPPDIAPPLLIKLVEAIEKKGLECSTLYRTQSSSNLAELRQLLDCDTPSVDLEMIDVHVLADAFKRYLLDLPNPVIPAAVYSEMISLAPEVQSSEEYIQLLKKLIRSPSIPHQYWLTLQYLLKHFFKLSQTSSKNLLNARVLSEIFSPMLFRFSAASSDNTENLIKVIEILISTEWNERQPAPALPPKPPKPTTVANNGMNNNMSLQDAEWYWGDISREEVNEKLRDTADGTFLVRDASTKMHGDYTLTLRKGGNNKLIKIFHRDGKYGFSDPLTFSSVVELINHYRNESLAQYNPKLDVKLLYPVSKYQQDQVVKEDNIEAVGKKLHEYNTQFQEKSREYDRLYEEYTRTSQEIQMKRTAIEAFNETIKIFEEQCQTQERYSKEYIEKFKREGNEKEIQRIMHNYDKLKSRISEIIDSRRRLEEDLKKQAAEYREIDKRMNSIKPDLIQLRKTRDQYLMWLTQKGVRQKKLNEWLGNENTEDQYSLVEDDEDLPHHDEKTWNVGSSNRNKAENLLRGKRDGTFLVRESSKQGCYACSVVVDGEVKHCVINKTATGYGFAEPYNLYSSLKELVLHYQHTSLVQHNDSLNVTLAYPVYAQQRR

For the assay, the target named is PI3Kα H1047R (Homo sapiens, UniProt P42336, H1047R). The experiment in a line: ADP-Glo assay. The note with it: 2 nM H1047R enzyme; 1 hour incubation with compound at room temperature; ATPase reaction 100 min. The format is biochemical. As for the experimental part:
Compounds were plated using acoustic liquid dispensing on the Echo 655T by transferring 50 nL/well compound DMSO solution from an Echo source plate to a 384-well assay plate to generate a 10-point dose response curve with a top final concentration of […], 1:3 serial dilution down; the same volume of DMSO was dispensed to wells designated as positive and negative controls. On the day of the assay, a 2X enzyme solution in the assay buffer (50 mM Tris, 150 mM NaCl, 0.01% Brij35, 15 mM MgCl2, 0.05% Tween-20, and 1 mM DTT) was prepared. The enzyme concentrations used were: 20 nM for wild-type, 2 nM for H1047R and H1047L, and 10 nM for H1047Y proteins. 2.5 µL/well of 2X enzyme solution was dispensed into the assay plates and the enzyme was incubated with the test compound at room temperature for 1 hour; the same volume of assay buffer without enzyme was dispensed to wells designated as positive controls. At the end of the incubation, 2.5 µL/well of 2X ATP solution in assay buffer was dispensed to initiate the ATPase reaction and incubated at room temperature for 100 min. Reactions were terminated and ADP production measured using the ADP-Glo kit following instructions from the manufacturer.
The IC50(nM) ranges are as follows: A denotes <200 nM; B denotes 200 nM≤IC50<500 nM; C denotes ≥500 nM. ND denotes value not determined with that assay for the specified compound.
(In ADP-Glo the light output rises with the ADP produced.)
On to `Cc1c([C@@H](NC(=O)Nc2cnc(N)nc2)C(F)(F)F)nn2ccccc12` (racemic) [Compound 5], for which the IC50 is at least 0.5 µM. In the case of `Cn1c([C@@H](NC(=O)Nc2cnc(N)nc2)C(F)(F)F)nc2c(F)cc(F)cc21` (racemic) [Compound 7], the IC50 is under 0.2 µM. Consider `Cn1c([C@@H](NC(=O)Nc2cnc(N)nc2)C(F)(F)F)cc2c(F)cc(F)cc21` (racemic) [Compound 9], for which the half-maximal inhibitory concentration (IC50) is under 0.2 µM. As to `Cc1c([C@@H](NC(=O)Nc2cnc(N)nc2)C(F)(F)F)nc2ccc(F)cn12` (racemic) [Compound 11], the IC50 is at least 0.5 µM.

Consider `Cn1c(C(NC(=O)Nc2cnc(N)nc2)C(F)(F)F)cc2ccc(F)cc21` (stereo not shown) [Compound 1, 1-(2-aminopyrimidin-5-yl)-3-[2,2,2-trifluoro-1-(6-fluoro-1-methylindol-2-yl)ethyl]urea], for which the half-maximal inhibitory concentration (IC50) is under 0.2 µM.

Regarding `CC(C)C(NC(=O)Nc1cnc(N)nc1)c1cc2ccc(F)cc2n1C` (stereo not shown) [Compound 2, 1-(2-aminopyrimidin-5-yl)-3-[1-(6-fluoro-1-methylindol-2-yl)-2-methylpropyl]urea], the IC50 is under 0.2 µM. In the case of `Cc1c([C@@H](NC(=O)Nc2cnc(N)nc2)C(F)(F)F)n(C)c2c(F)cc(F)cc12` [Compound 3, 1-(2-aminopyrimidin-5-yl)-3-[(1R)-1-(5,7-difluoro-1,3-dimethylindol-2-yl)-2,2,2-trifluoroethyl]ureas] it was 0.2 to 0.5 µM.

Source of the values: patent publication US20260125366A1, “METHODS FOR TREATING CANCER” (SCORPION THERAPEUTICS, INC., priority 2022, published 2026).
